Where two headings read alike, the source gives them in different places.
Tests used:
primary rat microglia [1] = tested on: primary rat microglia;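 for Fibrin % cell toxicity: share of dead cells sized under 150 µm2 at 10 µM in fibrin-stimulated microglia HTS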
primary rat microglia [2] = tested on: primary rat microglia; remark: listed apart in the source;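 for Fibrin % cell toxicity: share of dead cells sized under 150 µm2 at 10 µM in fibrin-stimulated microglia HTS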
[3] = tested on: fibrin- and LPS-induced microglia activation; test: cells; type: cell-based, rat
[4] = tested on: LPS-induced microglia activation; test: Image-based assay of LPS-induced microglia activation (HTS and dose response); type: cell-based, rat
[5] = tested on: fibrin-induced microglia activation; test: Image-based assay of fibrin-induced microglia activation (HTS and dose response); type: cell-based, rat; details: for inhibition at 10 µM: Rattus norvegicus, Microglia, read-out: Fibrin % inhibition
[6] = quadrant by fibrin and LPS inhibition in HTS of 1907 compounds
[7] = Rattus norvegicus, Microglia, 48 h, primary microglia HTS, LPS stimulation; increased cell size (>800 μm^2) as marker of activation; read-out: LPS % inhibition
[8] = primary microglia HTS, fibrin stimulation, increased cell size (>800 μm^2) as marker of activation
[9] = Rattus norvegicus, Microglia, 48 h, read-out: LPS % inhibition
[10] = classification by fibrin and LPS inhibition in HTS
[11] = Rattus norvegicus, Microglia, 48 h; read-out: LPS % inhibition
[12] = primary microglia HTS, fibrin stimulation, cell size >800 μm2 as marker of activation

Row | SMILES | Fibrin % cell toxicity (primary rat microglia [1]; rat) [%] | LPS % cell toxicity (primary rat microglia [2]; rat) [%] | Quadrant (FIG. 5b) [3] | inhibition at 10 µM [5] [%] | inhibition at 10 µM [4, 9] [%] | Quadrant (FIG. 5b) [3, 10] | inhibition at 10 µM [4, 11] [%] | inhibition at 10 µM [5, 12] [%] | further results
1 | Oc1cccc2cccnc12 [Oxyquinoline] | 80 | 57 | Q2 | 117 | – | – | – | – | inhibition at 10 µM ([4]; Rattus norvegicus, Microglia, read-out: LPS % inhibition): 116%
2 | CN(C)[C@@H]1C(O)=C(C(N)=O)C(=O)[C@@]2(O)C(O)=C3C(=O)c4c(O)cccc4[C@@](C)(O)[C@H]3[C@H](O)[C@@H]12 [Oxytetracycline] | 1 | 0 | – | – | – | – | – | – | Quadrant (FIG. 5b) [3, 6]: Q4; inhibition at 10 µM [4, 7]: 10%; inhibition at 10 µM [5, 8]: 0%
3 | Cc1nc2n(c(=O)c1CCN1CCC(c3noc4cc(F)ccc34)CC1)CCCC2O (stereo not shown) [Paliperidone] | 1 | 0 | – | – | – | – | – | – | Quadrant (FIG. 5b) [3, 6]: Q4; inhibition at 10 µM [4, 7]: 9%; inhibition at 10 µM [5, 8]: -26%
4 | Oc1ccc(Cl)cc1 [Parachlorophenol] | 0 | 0 | Q4 | 21 | 15 | – | – | – | –
5 | Fc1ccc([C@@H]2CCNC[C@H]2COc2ccc3c(c2)OCO3)cc1 [Paroxetine] | 1 | 0 | – | – | – | Q4 | 15 | 38 | –
6 | Nc1nc2[nH]cc(CCc3ccc(C(=O)N[C@@H](CCC(=O)O)C(=O)O)cc3)c2c(=O)[nH]1 [Pemetrexed] | 0 | 0 | – | – | – | Q4 | 9 | -8 | –
7 | CC(C)(C)NC[C@H](O)COc1ccccc1C1CCCC1 [Penbutolol] | 1 | 0 | – | – | – | Q4 | 17 | -8 | –
8 | CC(C)(S)[C@@H](N)C(=O)O [Penicillamine] | 0 | 0 | – | – | – | Q4 | 16 | -15 | –
9 | N=C(N)c1ccc(OCCCCCOc2ccc(C(=N)N)cc2)cc1 [Pentamidine] | 1 | 1 | Q4 | 6 | 33 | – | – | – | –
10 | CC(=O)CCCCn1c(=O)c2c(ncn2C)n(C)c1=O [Pentoxifylline] | 0 | 0 | – | – | – | Q4 | 6 | 4 | –
11 | NNCCc1ccccc1 [Phenelzine] | 1 | 0 | Q4 | 2 | -4 | – | – | – | –
12 | CN(C)CCC(c1ccccc1)c1ccccn1 (stereo not shown) [Pheniramine] | 1 | 0 | – | – | – | Q4 | 1 | -9 | –
13 | CC(C)=CC1C(C(=O)OCc2cccc(Oc3ccccc3)c2)C1(C)C (stereo not shown) [Phenothrin] | 0 | 0 | – | – | – | Q4 | 11 | -50 | –
14 | CC(COc1ccccc1)N(CCCl)Cc1ccccc1 (stereo not shown) [Phenoxybenzamine] | 1 | 0 | – | – | – | Q4 | -5 | 8 | –
15 | CCCCC1C(=O)N(c2ccccc2)N(c2ccccc2)C1=O [Phenylbutazone] | 0 | 0 | – | – | – | Q4 | 5 | -23 | –
16 | CNC[C@H](O)c1cccc(O)c1 [Phenylephrine] | 1 | 0 | Q4 | 38 | 31 | – | – | – | –
17 | CC1=C(C/C=C(\C)CCC[C@H](C)CCC[C@H](C)CCCC(C)C)C(=O)c2ccccc2C1=O [Phylloquinone] | – | – | – | – | – | Q4 | – | – | Fibrin % cell toxicity (primary rat microglia [1]): 0%; LPS % cell toxicity (primary rat microglia [2]): 2%; LPS % inhibition [4]: 31%; Fibrin % inhibition [5, 12]: 4%
18 | CNC(=O)Oc1ccc2c(c1)[C@]1(C)CCN(C)[C@@H]1N2C [Physostigmine] | 0 | 0 | – | – | – | Q4 | 18 | -73 | –
19 | CCn1cc(C(=O)O)c(=O)c2cnc(N3CCNCC3)nc21 [Pipemidic Acid] | 1 | 0 | – | – | – | Q4 | 12 | -27 | –
20 | C1CNCCN1 [Piperazine] | 0 | 0 | Q4 | -3 | 16 | – | – | – | –
21 | CCCCOCCOCCOCc1cc2c(cc1CCC)OCO2 [Piperonyl Butoxide] | 0 | 0 | Q4 | 0 | 12 | – | – | – | –
22 | CN1CCN(CC(=O)N2c3ccccc3C(=O)Nc3cccnc32)CC1 [Pirenzepine] | 0 | 0 | Q4 | 16 | 19 | – | – | – | –
23 | O=C([O-])C[C@H](O)C[C@H](O)/C=C/c1c(C2CC2)nc2ccccc2c1-c1ccc(F)cc1.O=C([O-])C[C@H](O)C[C@H](O)/C=C/c1c(C2CC2)nc2ccccc2c1-c1ccc(F)cc1.[Ca+2] [Pitavastatin calcium, reference compound] | – | – | Q2 | – | – | – | – | – | Fibrin % cell toxicity (primary rat microglia [1]): 1%; IC50 (primary rat microglia [1]): > 20 µM; IC50 (primary rat microglia [2]): > 20 µM; LPS % cell toxicity (primary rat microglia [2]): 1%; Cherry-picked Hit (Suppl. Table 7) [3]: HIT (key: HIT: Hits were defined as molecules that exhibited greater than 50% inhibition of either fibrin or LPS activation); Hit [3]: HIT (key: HIT: Hits were defined as molecules that exhibited greater than 50% inhibition of either fibrin or LPS activation); LPS % inhibition [4]: 66%; IC50 ([4]; read-out: LPS IC50): 5 µM; IC50 ([4]; read-out: LPS IC50 (uM) (Suppl. Table 7)): 5 µM; Fibrin % inhibition [5]: 100%; Fibrin Selectivity [5]: 4; Fibrin Selectivity (LOG10) [5]: 0.61; IC50 ([5]; read-out: Fibrin IC50): 1 µM; IC50 ([5]; read-out: Fibrin IC50 (uM) (Suppl. Table 7)): 1 µM
24 | COc1cc([C@@H]2c3cc4c(cc3[C@H](O)[C@H]3COC(=O)[C@H]23)OCO4)cc(OC)c1OC [Podofilox/Podophyllotoxin] | – | – | – | – | – | – | – | – | Fibrin % cell toxicity (primary rat microglia [1]): 8%; LPS % cell toxicity (primary rat microglia [2]): 9%; Quadrant (FIG. 5b) [3, 6]: Q2; LPS % inhibition ([4]; primary microglia HTS, LPS stimulation; increased cell size (>800 μm^2) as marker of activation): 107%; Fibrin % inhibition [5, 8]: 110%
25 | CC(=O)O[C@H]1CC[C@@]2(C)C(=CC[C@@H]3[C@@H]2CC[C@]2(C)C(=O)CC[C@@H]32)C1 [Praesterone Acetate, Prasterone Acetate] | – | – | – | – | – | Q4 | – | – | Fibrin % cell toxicity (primary rat microglia [1]): 1%; LPS % cell toxicity (primary rat microglia [2]): 0%; LPS % inhibition [4]: 5%; Fibrin % inhibition [5, 12]: −3%
26 | C[n+]1ccccc1/C=N/O [Pralidoxime] | 1 | 0 | Q4 | -12 | 17 | – | – | – | –
27 | CCCN[C@H]1CCc2nc(N)sc2C1 [Pramipexole] | 1 | 0 | Q4 | -19 | 1 | – | – | – | –

From patent US20210330611A1, “THERAPY FOR NEUROLOGICAL DISEASES/DISORDERS” (priority 2020, published 2021)
